Activity calls are given as the source filed them.
What was measured:
[1] = biological target: T1, Voltage-gated N-type calcium channel alpha-1B subunit/Amyloid beta A4 precursor protein-binding family A member 1 (Homo sapiens, UniProt Q00975+Q02410); format: protein assay
[2] = biological target: NS3 (Hepatitis C virus, UniProt A3EZJ3); assay: PubChem AID 2173; parameters: species or system Hepacivirus hominis
[3] = biological target: T1, Voltage-gated N-type calcium channel alpha-1B subunit/Amyloid beta A4 precursor protein-binding family A member 1; format: protein assay; remark: listed apart in the source
[4] = biological target: T2, Bifunctional protein GlmU (Mycobacterium tuberculosis, UniProt P9WMN3); assay: Inhibitors of Mycobacterial Glucosamine-1-phosphate acetyl transferase (GlmU). Secondary screen.; parameters: species or system Mycobacterium tuberculosis H37Rv
T2 sequence (P9WMN3 whole entry): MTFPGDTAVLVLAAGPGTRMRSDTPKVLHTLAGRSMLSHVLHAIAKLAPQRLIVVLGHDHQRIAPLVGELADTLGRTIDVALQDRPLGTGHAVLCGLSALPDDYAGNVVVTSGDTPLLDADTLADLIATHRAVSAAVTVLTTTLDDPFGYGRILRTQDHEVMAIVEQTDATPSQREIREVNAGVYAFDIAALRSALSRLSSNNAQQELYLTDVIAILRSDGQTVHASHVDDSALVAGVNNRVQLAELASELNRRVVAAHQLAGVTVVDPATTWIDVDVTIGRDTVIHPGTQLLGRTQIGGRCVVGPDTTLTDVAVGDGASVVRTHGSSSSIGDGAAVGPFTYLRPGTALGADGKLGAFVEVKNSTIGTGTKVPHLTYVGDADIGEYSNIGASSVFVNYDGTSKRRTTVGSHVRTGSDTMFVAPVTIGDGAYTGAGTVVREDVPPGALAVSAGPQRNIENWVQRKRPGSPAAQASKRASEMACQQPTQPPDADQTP

[5] = biological target: Induced myeloid leukemia cell differentiation protein Mcl-1 (Homo sapiens, UniProt Q07820); format: functional
Sequence of Induced myeloid leukemia cell differentiation protein Mcl-1 (Q07820 whole entry): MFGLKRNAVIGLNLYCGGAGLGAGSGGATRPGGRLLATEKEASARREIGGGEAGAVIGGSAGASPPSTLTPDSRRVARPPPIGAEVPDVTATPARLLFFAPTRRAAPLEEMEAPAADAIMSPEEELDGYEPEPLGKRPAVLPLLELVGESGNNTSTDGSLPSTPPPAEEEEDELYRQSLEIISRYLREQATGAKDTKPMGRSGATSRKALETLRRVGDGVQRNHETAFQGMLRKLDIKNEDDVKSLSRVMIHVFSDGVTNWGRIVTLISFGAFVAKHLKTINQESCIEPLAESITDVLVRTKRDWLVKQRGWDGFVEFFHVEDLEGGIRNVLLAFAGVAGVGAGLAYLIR

[6] = biological target: ORF 73 (Human herpesvirus 8, UniProt O40947); assay: KSHV LANA DNA-binding disruption – biochemical, fluorescence polarization, cherry-picked samples, dose response (AID 504725); parameters: species or system Human gammaherpesvirus 8;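 also: fluorescence polarization of a labeled DNA duplex reporting LANA DNA binding; potency is for inhibitors that block LANA binding to the DNA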
[7] = biological target: Eukaryotic translation initiation factor 4E (Mus musculus, UniProt P63073); assay: blockers of eIF4G binding by eIF4E – biochemical, TR-FRET, dose response (AID 855); format: functional;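 also: potency for disrupting eIF4E binding to eIF4GI seen as loss of FRET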
Sequence of Eukaryotic translation initiation factor 4E (P63073 whole entry): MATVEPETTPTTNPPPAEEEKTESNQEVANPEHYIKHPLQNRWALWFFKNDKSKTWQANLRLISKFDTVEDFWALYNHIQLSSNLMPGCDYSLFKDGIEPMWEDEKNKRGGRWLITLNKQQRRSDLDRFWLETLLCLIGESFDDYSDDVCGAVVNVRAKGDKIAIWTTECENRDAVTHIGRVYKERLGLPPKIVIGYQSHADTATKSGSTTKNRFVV

[8] = biological target: DNA (cytosine-5)-methyltransferase 1 (Homo sapiens, UniProt P26358); assay: inhibition of DNA methylation by DNMT1 – biochemical, fluorescent molecular beacon, confirmation (AID 602386); format: functional
[9] = tested on: CHO-K1; assay: (§1) Counterscreen for antagonists of the orexin 1 receptor (OX1R; HCRTR1): Homogeneous time resolved fluorescence (HTRF)-based cell-based dose response assay to identify antagonists of the parental CHO-K1 cell line. [Related pubchem assays (depositor defined):AID434989, AID435008, AID463079, AID485270, AID492963, AID492964, AID492965, AID493232, AID504699, AID504701]; format: functional; conditions: Cricetulus griseus
[10] = as §1, with “Fluorescence-based” for “Homogeneous time resolved fluorescence (HTRF)-based”, “cell-based high throughput” for “cell-based”, “CHO” for “CHO-K1”; format: functional
[11] = biological target: T3, Orexin/Hypocretin receptor type 1 (Homo sapiens, UniProt O43613); assay: Homogeneous Time Resolved Fluorescence (HTRF)-based cell-based high throughput dose response assay for antagonists of the orexin 1 receptor (OX1R; HCRTR1). [Related pubchem assays (depositor defined):AID434989, AID435008, AID463079, AID485270, AID492963, AID492964, AID492965, AID493232, AID504717, AID504718]; format: functional
T3 sequence (O43613 whole entry): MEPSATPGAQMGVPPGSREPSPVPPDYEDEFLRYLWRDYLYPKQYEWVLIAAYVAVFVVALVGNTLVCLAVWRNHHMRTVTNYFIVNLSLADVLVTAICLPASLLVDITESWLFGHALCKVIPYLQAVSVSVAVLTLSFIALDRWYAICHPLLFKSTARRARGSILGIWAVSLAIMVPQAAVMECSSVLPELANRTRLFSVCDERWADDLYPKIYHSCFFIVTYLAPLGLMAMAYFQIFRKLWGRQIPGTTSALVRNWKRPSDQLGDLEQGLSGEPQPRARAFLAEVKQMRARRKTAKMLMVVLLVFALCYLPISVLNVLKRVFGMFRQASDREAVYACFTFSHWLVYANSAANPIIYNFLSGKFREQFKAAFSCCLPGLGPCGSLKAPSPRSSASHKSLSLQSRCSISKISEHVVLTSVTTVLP

[12] = biological target: T3, Orexin/Hypocretin receptor type 1; assay: Fluorescence-based cell-based high throughput dose response assay for antagonists of the orexin 1 receptor (OX1R; HCRTR1). [Related pubchem assays (depositor defined):AID434989, AID435008, AID463079, AID485270, AID492963, AID492964, AID492965, AID493232, AID504717, AID504718]; format: functional
[13] = biological target: T4, Orexin receptor type 2 (Homo sapiens, UniProt O43614); assay: Counterscreen assay for antagonists of the orexin 1 receptor (OX1R; HCRTR1): Fluorescence-based cell-based dose response assay for antagonists of the orexin 2 receptor (OX2R; HCRTR2), run by assay provider.; format: functional
T4 sequence (O43614 whole entry): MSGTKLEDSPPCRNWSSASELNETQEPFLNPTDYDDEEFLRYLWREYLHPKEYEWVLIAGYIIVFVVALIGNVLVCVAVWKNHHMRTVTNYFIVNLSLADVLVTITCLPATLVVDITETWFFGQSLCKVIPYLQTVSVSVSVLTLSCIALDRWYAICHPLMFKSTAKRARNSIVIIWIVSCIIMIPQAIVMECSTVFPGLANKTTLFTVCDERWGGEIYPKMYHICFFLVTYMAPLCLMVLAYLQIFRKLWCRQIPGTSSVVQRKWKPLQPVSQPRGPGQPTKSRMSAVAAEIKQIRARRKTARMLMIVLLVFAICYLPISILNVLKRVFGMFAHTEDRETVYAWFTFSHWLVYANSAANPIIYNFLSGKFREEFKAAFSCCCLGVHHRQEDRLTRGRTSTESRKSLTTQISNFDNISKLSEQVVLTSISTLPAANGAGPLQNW

[14] = biological target: T4, Orexin receptor type 2; assay: Counterscreen assay for antagonists of the orexin 1 receptor (OX1R; HCRTR1): Homogeneous Time Resolved Fluorescence (HTRF)-based cell-based dose response assay for antagonists of the orexin 2 receptor (OX2R; HCRTR2), run by assay provider.; format: functional
[15] = biological target: T5, Apoptotic protease-activating factor 1 (Homo sapiens, UniProt O14727); assay: SAR analysis of small molecule Activators of Apaf-1 in a Fluorescent assay.; format: functional; conditions: read-out: EC50_Mean;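 also: caspase-3 cleavage of fluorogenic Rh110 DEVD substrate downstream of apoptosome activation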
T5 sequence (O14727 whole entry): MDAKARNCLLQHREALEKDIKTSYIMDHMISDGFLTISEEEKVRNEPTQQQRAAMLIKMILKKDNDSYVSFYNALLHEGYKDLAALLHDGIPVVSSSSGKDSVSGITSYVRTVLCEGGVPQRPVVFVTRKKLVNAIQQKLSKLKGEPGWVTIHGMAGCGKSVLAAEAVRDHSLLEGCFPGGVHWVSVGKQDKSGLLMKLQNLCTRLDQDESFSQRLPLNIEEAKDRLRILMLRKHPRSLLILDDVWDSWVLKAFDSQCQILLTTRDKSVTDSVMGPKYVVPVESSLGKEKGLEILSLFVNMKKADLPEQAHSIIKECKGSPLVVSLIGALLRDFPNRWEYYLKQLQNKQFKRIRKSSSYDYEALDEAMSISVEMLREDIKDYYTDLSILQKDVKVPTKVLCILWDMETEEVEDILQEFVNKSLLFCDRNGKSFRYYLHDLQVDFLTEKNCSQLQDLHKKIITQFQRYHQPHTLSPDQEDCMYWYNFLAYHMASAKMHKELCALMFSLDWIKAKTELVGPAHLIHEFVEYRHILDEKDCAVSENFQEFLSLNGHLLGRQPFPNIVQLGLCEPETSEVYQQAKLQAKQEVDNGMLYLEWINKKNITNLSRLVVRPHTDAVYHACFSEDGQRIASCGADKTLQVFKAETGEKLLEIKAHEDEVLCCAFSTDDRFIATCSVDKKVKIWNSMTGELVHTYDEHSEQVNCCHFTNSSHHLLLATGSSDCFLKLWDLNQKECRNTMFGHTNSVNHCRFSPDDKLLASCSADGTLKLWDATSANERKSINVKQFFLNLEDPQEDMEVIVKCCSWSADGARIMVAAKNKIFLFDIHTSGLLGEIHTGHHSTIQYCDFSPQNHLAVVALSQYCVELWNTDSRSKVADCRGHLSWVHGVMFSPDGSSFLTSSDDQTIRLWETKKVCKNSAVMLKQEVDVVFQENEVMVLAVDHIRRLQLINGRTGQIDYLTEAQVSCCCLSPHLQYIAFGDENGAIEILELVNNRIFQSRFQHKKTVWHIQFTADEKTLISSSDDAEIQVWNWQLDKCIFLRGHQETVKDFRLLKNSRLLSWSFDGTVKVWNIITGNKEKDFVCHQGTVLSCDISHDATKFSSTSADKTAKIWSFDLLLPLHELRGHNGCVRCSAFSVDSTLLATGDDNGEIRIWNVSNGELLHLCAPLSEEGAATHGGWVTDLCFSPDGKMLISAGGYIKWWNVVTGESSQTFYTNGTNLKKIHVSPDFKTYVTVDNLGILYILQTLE

T1 sequence (Q00975 whole entry): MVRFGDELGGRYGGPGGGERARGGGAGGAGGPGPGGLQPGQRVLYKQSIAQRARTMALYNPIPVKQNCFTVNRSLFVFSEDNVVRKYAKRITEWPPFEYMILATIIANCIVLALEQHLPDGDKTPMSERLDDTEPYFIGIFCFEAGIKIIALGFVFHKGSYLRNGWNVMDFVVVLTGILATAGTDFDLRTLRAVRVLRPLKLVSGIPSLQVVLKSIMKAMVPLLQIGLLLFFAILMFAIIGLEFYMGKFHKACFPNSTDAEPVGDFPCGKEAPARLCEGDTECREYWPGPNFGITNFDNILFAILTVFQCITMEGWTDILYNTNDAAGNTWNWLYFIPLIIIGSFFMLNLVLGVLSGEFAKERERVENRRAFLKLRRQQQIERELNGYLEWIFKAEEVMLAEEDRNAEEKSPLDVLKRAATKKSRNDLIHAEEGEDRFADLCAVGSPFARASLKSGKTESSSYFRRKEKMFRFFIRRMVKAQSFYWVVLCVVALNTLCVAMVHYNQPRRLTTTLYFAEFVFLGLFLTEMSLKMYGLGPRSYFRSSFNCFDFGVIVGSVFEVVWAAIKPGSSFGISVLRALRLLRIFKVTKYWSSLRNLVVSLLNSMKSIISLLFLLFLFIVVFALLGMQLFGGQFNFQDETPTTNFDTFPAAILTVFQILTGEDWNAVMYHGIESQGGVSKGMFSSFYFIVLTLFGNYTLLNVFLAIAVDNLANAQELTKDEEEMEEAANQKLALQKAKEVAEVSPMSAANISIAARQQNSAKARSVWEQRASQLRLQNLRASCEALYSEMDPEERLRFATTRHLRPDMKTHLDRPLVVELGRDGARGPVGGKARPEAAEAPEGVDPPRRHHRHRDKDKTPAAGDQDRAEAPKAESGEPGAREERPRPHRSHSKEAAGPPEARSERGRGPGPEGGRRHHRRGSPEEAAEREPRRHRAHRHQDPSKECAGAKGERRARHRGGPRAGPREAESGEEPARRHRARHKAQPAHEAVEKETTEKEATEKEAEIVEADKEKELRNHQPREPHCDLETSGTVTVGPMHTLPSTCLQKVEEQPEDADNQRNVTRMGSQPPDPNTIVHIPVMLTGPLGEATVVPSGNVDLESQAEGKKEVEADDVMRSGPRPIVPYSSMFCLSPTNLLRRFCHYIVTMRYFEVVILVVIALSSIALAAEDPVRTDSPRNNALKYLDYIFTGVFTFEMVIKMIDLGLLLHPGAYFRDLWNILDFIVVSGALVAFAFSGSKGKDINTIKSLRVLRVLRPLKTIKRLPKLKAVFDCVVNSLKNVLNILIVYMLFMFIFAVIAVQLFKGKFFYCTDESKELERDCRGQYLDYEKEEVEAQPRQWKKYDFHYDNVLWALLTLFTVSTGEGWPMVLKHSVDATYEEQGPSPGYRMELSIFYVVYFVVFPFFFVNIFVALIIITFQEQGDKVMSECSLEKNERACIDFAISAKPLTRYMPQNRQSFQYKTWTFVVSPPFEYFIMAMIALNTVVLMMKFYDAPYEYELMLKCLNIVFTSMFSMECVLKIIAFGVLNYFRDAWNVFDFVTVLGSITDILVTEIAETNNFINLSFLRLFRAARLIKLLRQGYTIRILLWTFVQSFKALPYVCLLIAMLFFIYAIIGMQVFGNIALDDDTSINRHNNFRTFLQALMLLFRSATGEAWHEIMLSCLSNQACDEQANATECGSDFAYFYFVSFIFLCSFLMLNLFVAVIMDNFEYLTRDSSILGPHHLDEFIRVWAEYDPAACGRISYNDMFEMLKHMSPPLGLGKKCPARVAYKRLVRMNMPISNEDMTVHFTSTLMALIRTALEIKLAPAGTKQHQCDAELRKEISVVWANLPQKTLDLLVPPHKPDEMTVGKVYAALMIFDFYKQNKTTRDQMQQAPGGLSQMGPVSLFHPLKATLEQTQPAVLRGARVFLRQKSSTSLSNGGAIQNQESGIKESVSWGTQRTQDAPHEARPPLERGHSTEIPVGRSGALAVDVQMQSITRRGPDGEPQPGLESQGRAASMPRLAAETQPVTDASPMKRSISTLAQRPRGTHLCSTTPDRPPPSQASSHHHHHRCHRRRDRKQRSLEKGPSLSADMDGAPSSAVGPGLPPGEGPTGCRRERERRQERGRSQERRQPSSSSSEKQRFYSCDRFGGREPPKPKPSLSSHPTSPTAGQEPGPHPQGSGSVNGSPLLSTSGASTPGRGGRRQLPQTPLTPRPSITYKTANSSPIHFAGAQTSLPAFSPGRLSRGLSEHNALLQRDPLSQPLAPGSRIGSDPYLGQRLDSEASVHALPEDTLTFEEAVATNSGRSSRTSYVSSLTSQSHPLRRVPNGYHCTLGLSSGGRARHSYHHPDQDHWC
T1 sequence (Q02410 whole entry): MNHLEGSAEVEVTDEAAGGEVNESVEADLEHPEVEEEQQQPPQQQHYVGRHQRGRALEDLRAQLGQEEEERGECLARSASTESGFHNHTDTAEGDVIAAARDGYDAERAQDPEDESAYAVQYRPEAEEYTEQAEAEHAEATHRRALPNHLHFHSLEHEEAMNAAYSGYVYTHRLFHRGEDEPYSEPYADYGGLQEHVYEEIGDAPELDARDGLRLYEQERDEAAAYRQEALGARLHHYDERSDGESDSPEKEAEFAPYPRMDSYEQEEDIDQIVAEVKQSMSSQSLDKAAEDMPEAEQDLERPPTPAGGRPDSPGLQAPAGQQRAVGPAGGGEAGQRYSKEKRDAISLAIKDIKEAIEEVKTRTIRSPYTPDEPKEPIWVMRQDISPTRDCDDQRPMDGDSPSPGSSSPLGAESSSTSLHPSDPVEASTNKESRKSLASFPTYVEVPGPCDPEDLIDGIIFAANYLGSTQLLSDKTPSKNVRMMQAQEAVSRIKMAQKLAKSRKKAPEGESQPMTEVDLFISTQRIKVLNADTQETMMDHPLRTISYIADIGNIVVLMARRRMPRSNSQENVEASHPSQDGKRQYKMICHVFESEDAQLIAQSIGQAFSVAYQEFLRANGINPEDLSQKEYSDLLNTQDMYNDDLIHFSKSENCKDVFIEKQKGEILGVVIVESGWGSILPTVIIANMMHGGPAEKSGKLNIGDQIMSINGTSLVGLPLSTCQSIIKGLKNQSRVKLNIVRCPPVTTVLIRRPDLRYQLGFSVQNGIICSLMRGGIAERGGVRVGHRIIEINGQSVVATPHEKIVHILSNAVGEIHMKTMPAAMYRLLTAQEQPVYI
Sequence of NS3 (A3EZJ3 whole entry): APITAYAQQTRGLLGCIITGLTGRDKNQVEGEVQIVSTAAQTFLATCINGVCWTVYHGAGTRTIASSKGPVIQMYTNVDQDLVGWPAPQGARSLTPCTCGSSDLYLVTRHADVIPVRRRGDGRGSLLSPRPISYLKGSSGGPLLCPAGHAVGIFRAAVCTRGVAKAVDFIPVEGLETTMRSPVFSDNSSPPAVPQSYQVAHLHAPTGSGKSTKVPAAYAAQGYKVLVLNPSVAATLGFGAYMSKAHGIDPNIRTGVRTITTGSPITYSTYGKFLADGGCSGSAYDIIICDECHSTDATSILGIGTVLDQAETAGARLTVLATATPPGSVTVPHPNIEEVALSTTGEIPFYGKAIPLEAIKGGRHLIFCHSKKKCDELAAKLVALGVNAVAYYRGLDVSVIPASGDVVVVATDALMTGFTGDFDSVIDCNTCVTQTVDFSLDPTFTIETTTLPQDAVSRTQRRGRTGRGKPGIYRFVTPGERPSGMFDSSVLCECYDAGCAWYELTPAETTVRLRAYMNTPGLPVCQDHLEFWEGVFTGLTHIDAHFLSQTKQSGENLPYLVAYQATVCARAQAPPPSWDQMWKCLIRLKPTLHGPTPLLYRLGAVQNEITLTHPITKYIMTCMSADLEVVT

Structure (SMILES) | IC50 [1] | IC50 [2] | IC50 [3] | IC50 [4] | IC50 [5] | AC50 [6] | IC50 [7] | IC50 [8] | IC50 [9] | IC50 [10] | IC50 [11] | IC50 [12] | IC50 [13] | IC50 [14] | EC50 [15]
O=C(O)c1ccc(-n2cccc2/C=C2/NC(=O)N(c3cccc(Cl)c3)C2=O)cc1 | 3.28 µM (active) | 6.07 µM (active) | 48.1 µM (active) | 66.8 µM (active) | 6.34 µM (active) | 86.8 µM (active) | 50 µM (inactive) | 4.62 µM (active) | – | – | – | – | – | – | –
O=C(c1ccc(S(=O)(=O)Nc2ccc(F)cc2)cc1)N1CCN(c2ccccn2)CC1 | – | – | – | – | – | – | – | – | > 66.2 µM (inactive) | 14.7 µM (inactive) | 4.45 µM (active) | 7.1 µM (active) | 15.6 µM (inactive) | > 50 µM (inactive) | –
O=C(Nc1cccc(S(=O)(=O)NCc2ccco2)c1)c1cc(-c2ccccc2)nc2ccccc12 | – | – | – | – | – | – | – | – | > 66.2 µM (inactive) | > 49.7 µM (inactive) | 2.98 µM (active) | > 5.53 µM (active) | 16.9 µM (inactive) | > 50 µM (inactive) | –
COC(=O)c1coc(-c2ccc(F)cc2)n1 | – | – | – | – | – | – | – | – | – | – | – | – | – | – | > 100 µM (inactive)

Source: ChEMBL document CHEMBL1201862, “PubChem BioAssay data set” (2004)
